SMILES strings stand for the structures. Read-outs that look alike come from different tables or passages of the source.

One test relates to UT-SCC-45. Nature of the test: XTT cell viability, UT-SCC-45. Conditions: n ≥ 4. It counts as cell-based. On the procedure: (§1) The human squamous cell carcinoma cell lines UM-SCC-74A and UM-SCC-74B were kindly provided by Professor TE Carey (University of Michigan, USA) and cultured in Dulbecco's Modified Eagle Medium (DMEM) with 10% fetal bovine serum, 1% L-glutamine, 1% antibiotics (100 IU penicillin and 100 μg/ml streptomycin) as well as 1% non-essential amino acids (all from Biochrom Kg, Berlin, Germany). UT-SCC-45 (kindly provided by Dr. R. Grenman, Turku University Central Hospital, Finland) was cultured in DMEM with the abovementioned additives. HCT116 and A431 were purchased from American Type Culture Collection (Manassas, VA, USA). […]
(§2) Five-hundred to ten thousands cells were seeded in flat-bottomed 96-well plates and incubated for 48 h prior to irradiation with 2Gy. […] Plates were incubated for up to 6 h at 37° and absorbance was measured by using a BioMark Microplate Reader (Bio-Rad Laboratories AB, Solna, Sweden).
(§3) GraphPad Prism version 6.07 (GraphPad Software, San Diego, USA) was used for data processing and analysis. p-values were determined using unpaired student's t-test for comparison between two groups or one-way ANOVA followed by Tukey's multiple comparisons test, with p < 0.05 (^*), p < 0.01 (^**), p < 0.001 (^***), and p < 0.0001 (^****). […]
Background: Tetrazolium assays rely on reduction of a dye to a coloured formazan, in cell work by metabolically active cells.

The test system of the next test is UM-SCC-74B. Nature of the test: XTT cell viability, UM-SCC-74B. The format is cell-based, human. How it is done:
(§4) The human squamous cell carcinoma cell lines UM-SCC-74A and UM-SCC-74B were kindly provided by Professor TE Carey (University of Michigan, USA) and cultured in Dulbecco's Modified Eagle Medium (DMEM) with 10% fetal bovine serum, 1% L-glutamine, 1% antibiotics (100 IU penicillin and 100 μg/ml streptomycin) as well as 1% non-essential amino acids (all from Biochrom Kg, Berlin, Germany). UT-SCC-45 (kindly provided by Dr. R. Grenman, Turku University Central Hospital, Finland) was cultured in DMEM with the abovementioned additives. HCT116 and A431 were purchased from American Type Culture Collection (Manassas, VA, USA). HCT116 was cultured in McCoy's modified Eagle medium with 10% fetal bovine serum, 1% L-glutamine and 1% antibiotics (100 IU penicillin and 100 μg/ml streptomycin) and A431 was cultured in Ham's F10 with the same additives. H314 was purchased from the European Collection of Authenticated Cell Cultures (Salisbury, UK) in DMEM/Ham's F12 (1:1) with the abovementioned additives. Cells were incubated at 37°C with 5% CO2, and cultivated for no longer than 2 months at a time.
(§5) Cells were irradiated using ^137Cs gamma-ray photons at a dose-rate of ~1 Gy/min (Best Theratronics Gammacell® 40Exactor, Springfield, USA).
(§6) Five-hundred to ten thousands cells were seeded in flat-bottomed 96-well plates and incubated for 48 h prior to irradiation with 2Gy. […] Cells were incubated at 37° for 4–5 days until 80–90% confluence had been obtained. A mix of XTT Activation Reagent and XTT Reagent was added according to the American Type Culture Collection 30–1011 K protocol (Manassas, VA, USA). Plates were incubated for up to 6 h at 37° and absorbance was measured by using a BioMark Microplate Reader (Bio-Rad Laboratories AB, Solna, Sweden).
(§7) GraphPad Prism version 6.07 (GraphPad Software, San Diego, USA) was used for data processing and analysis. p-values were determined using unpaired student's t-test for comparison between two groups or one-way ANOVA followed by Tukey's multiple comparisons test, with p < 0.05 (^*), p < 0.01 (^**), p < 0.001 (^***), and p < 0.0001 (^****). For XTT assays cell viability was normalized for irradiated and unirradiated samples separately. […] CDI ≤ 0.7 equaled significant synergistic effect, CDI ≤ 1 equaled additive effect and CDI > 1 equaled antagonistic effect ([29]).

The next test relates to H314. Nature of the test: XTT cell viability, H314. It counts as cell-based. Conditions: n ≥ 4. On the procedure:
as §1, §2, §3

A further test has as its system cleaved caspase-3. Kind of test: Western Blot cleaved caspase-3 expression, UM-SCC-74B. It counts as cell-based, human. On the procedure: as §5
Whole-cell lysates were prepared according to standard protocols. Protein concentrations were measured using a DeNovix DS-11 spectrophotometer (DeNovix Inc., Wilmington, DE, USA). Samples were separated on 4–12% Bis-Tris SDS gels and transferred to a nitrocellulose membrane (ThermoFisher Scientific, Uppsala, Sweden) by wet-transfer blotting. The membrane was blocked for 1 h in PBS with 5% BSA before incubation with primary antibodies targeting p53, caspase-3, NaK-ATPase and GLB1 (DO-1 (ab1101), ab13847, ab76020 and ab128993, AbCam, Cambridge, UK) and β-actin (A5441, Sigma Aldrich Sweden, Stockholm, Sweden) at 4°C overnight. After washing with PBS with 1% Tween-20, the membrane was incubated with respective and species-specific Horse Radish Peroxidase-labeled secondary antibody (ThermoFisher Scientific, Waltham, MA, USA) and stained with electro-chemiluminescent solution (Immobilon, Millipore, Bedford, USA).
In general terms: A western blot detects proteins with antibodies after separation by electrophoresis.

The subject of the next test is HCT116. Nature of the test: XTT cell viability, HCT116. It counts as cell-based. How it is done: as §4, §5, §6, §7
Where [1] appears, read: 0–20 μM PM2, 0 Gy, wild-type p53, HPV negative, n = 6.
Setting [2] is: 20 μM PM2, 0 Gy, compared to untreated controls.

In the case of `CC(=O)N[C@H](C(=O)N[C@@H](CO)C(=O)N[C@@H](Cc1ccccc1)C(=O)N[C@]1(C)CCCCCCC=CCCC[C@@](C)(C(N)=O)NC(=O)[C@H](CC(C)C)NC(=O)[C@H](CC(C)C)NC(=O)[C@H](C)NC(=O)[C@H](Cc2c[nH]c3ccccc23)NC(=O)[C@H](Cc2ccc(O)cc2)NC(=O)[C@H](CCC(=O)O)NC1=O)[C@@H](C)O` [PM2], the PM2 effect entry in the test on UT-SCC-45 (0–20 μM PM2, 0 Gy, wild-type p53 (exon 4–8), HPV positive) was “unresponsive and No response and No”; with UM-SCC-74B (setting [1]), “decreased significantly the viability and Yes”; in the test on H314 (0–20 μM PM2, 0 Gy, two p53 mutations, HPV negative) it was “did not affect and No”; in the test with HCT116 (setting [1]), “decreased significantly the viability and Yes”. Moreover, the “Significant effect of combination” value in the test on UT-SCC-45 (PM2 with 2 Gy EBRT) is “unresponsive and No response and No”; in the test on UM-SCC-74B (PM2 with 2 Gy EBRT, n = 6) it was “most pronounced sensitivity and Yes”; in the test on H314 (PM2 with 2 Gy EBRT), “No”; in the test with HCT116 (PM2 with 2 Gy EBRT, n = 6), “Yes”. Further, the average viability reduction is on record as 90% with UM-SCC-74B (setting [2]) and 75% with HCT116 (setting [2]). Also, the IC50 (as a rule, the point on the concentration scale where inhibition reaches its midpoint) turned out to be 17 µM in the test on UM-SCC-74B (PM2 alone (0 Gy), 4–5 days, n = 6); 12 µM with HCT116 (PM2 added 3 h after 2 Gy EBRT, normalized to 2 Gy, 0 μM PM2, n = 6, read-out: IC50 of the combination treatment); 14 µM in the test on HCT116 (PM2 alone (0 Gy), 4–5 days, n = 6, read-out: IC50 (cell viability)). The “lowest PM2 dose with significant decrease of viability” value was “slightly higher dose” in the test on UM-SCC-74B (PM2 alone, compared with ~10 μM for HCT116 and UM-SCC-74A); ~ 10 μM in the test on HCT116 (PM2 alone). The “lowest PM2 dose with significant drop in viability of combination versus PM2-monotherapy” value in the test with UM-SCC-74B (PM2 with 2 Gy EBRT) was 10 µM. Further, in the test with cleaved caspase-3 (20 μM PM2, 72 h, normalized to controls, n ≥ 3), the “increase in cleaved caspase-3 levels” value is on record as “Four-fold”. Further, the “cleaved caspase-3 expression” value in the test on cleaved caspase-3 (20 μM PM2-treated samples, n ≥ 3) was “increase in expression”. Besides, in the test on cleaved caspase-3 (2 Gy + 20 μM PM2, n ≥ 3), the “cleaved caspase-3 expression, combination” value is reported as “predominant”.

The record behind these values is paper PMC6764291 (Frontiers in Oncology, 2019).
